PubChem BioAssay (NCI)
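Growth conditions: 96-well plates. Treatment: test compound, 48 hours, 5 concentrations. Analysis: linear interpolation between bracketing concentrations; unreached endpoints set to highest concentration. At the GI50, growth is halved. Definition used: TGI = concentration required for complete inhibition of growth.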

How the values were obtained:
Experiment in all cases: DTP human tumour cell line panel, 48 h
HS 578T breast = test system: HS 578T breast
MCF7 breast = test system: MCF7 breast
SN12C renal = test system: SN12C renal
OVCAR-8 ovarian = test system: OVCAR-8 ovarian
KM12 colon = test system: KM12 colon
HOP-62 NSCLC = test system: HOP-62 NSCLC
HCC-2998 colon = test system: HCC-2998 colon
HT29 colon = test system: HT29 colon

Row | Structure (SMILES) | GI50 (HS 578T breast) [µM] | TGI (HS 578T breast) [µM] | GI50 (MCF7 breast) [µM] | TGI (MCF7 breast) [µM] | GI50 (SN12C renal) [µM] | TGI (SN12C renal) [µM] | GI50 (OVCAR-8 ovarian) [µM] | TGI (OVCAR-8 ovarian) [µM] | GI50 (KM12 colon) [µM] | TGI (KM12 colon) [µM] | GI50 (HOP-62 NSCLC) [µM] | TGI (HOP-62 NSCLC) [µM] | GI50 (HCC-2998 colon) [µM] | TGI (HCC-2998 colon) [µM] | GI50 (HT29 colon) [µM] | TGI (HT29 colon) [µM]
1 | COc1ccc(-c2ccc(/C=C/C(=O)NO)cc2)cc1 | 3.15 | 56.3 | 0.639 | 19.2 | 0.864 | 10.9 | 0.896 | 4.62 | 1.11 | > 100 | 1.31 | 3.11 | 0.662 | 7.92 | 3.56 | > 100
2 | COc1ccc(OC)c(-c2nc3sccn3c2/C=C2/C(=O)Nc3ccc(Cl)cc32)c1 | 15.6 | 53.5 | 27.2 | 85 | 35.2 | > 100 | 34.4 | > 100 | 35.8 | > 100 | 25 | 60.5 | 18.4 | 33.9 | 25.7 | 67.3
3 | COC(=O)c1c[nH]c(=O)[nH]c1=O |  | > 100 |  | > 100 |  | > 100 |  | > 100 |  | > 100 |  |  |  | > 100 |  | 
4 | C=C(C=O)C1CC(=O)C(C(=O)OC)[C@@H]2O[C@@](C)(CC2=O)C[C@@H]2OC(=O)[C@]3(O[C@@H]23)[C@@H](C(=O)OC)C1 (stereo not given in full) | 32.8 | > 100 | 11.1 | 28 | 18.7 | 50.4 | 17.9 | 62.4 | 19.2 | 45 | 25.6 | 58.8 | 14.4 | 30.8 | 29 | > 100
5 | COc1ccccc1/C=C\c1cnnc2ccccc12 |  | > 10 |  | > 10 |  | > 10 |  | > 10 |  | > 10 |  | > 10 |  | > 10 |  | > 10
6 | O=C(O)c1c(O)c2cc(Br)ccc2oc1=O |  | > 100 |  | > 100 |  | > 100 |  | > 100 |  |  |  | > 100 |  | > 100 |  | > 100
7 | NC(=O)CCC(NC(=O)OCc1ccccc1)C(=O)OCC(=O)c1ccccc1 (stereo not given) | > 100 | > 100 | > 100 | > 100 | > 100 | > 100 |  |  | > 100 | > 100 | > 100 | > 100 | 65.6 | > 100 | > 100 | > 100
8 | CC1(C)N=C(N)N=C(N)N1c1cccc(C#N)c1 | 71.6 | > 100 | 3.85 | > 100 | 6.1 | > 100 | 0.599 | > 100 | 7.37 | > 100 | 16.6 | > 100 | 7.11 | > 100 | 0.933 | > 100
9 | CC(=O)OCC1OC(OC2C(COC(C)=O)OC(OCCC[S-])C(OC(C)=O)C2OC(C)=O)C(OC(C)=O)C(OC(C)=O)C1OC(C)=O.[Au+].c1ccc(CN2[CH-]N(Cc3ccccc3)C(c3ccccc3)=C2c2ccccc2)cc1 (stereo not given) | 9.16 | 87.7 | 2.44 | 9.58 | 3.32 | 15 | 3.75 | > 100 | 3.8 | 16.1 | 3.75 | 18.2 | 3.49 | 15.4 | 3.23 | 13.6
10 | COc1ccc(/C(C)=C(\c2ccc(Cl)cc2)c2ccc(OCCN3CCCC3)cc2)cc1 | 4.71 | 11.8 | 0.887 | 5.83 | 4.9 | 9.63 | 5.2 | 10.2 | 1.98 | 6.6 | 4.68 | 9.03 | 3.06 | 7.41 | 1.15 | 4.08
11 | CN(C)CCCNc1nn2c(=O)c3ccccc3nc2c2ccccc12 | 3.67 | 19.9 | 3.43 | 15.6 | 5.95 | > 100 | 7.08 | 40.7 | 11.2 | 27.2 | 8.26 | 21.5 | 11.6 | 26.9 | 3.46 | 14.7
12 | O=P(Oc1ccc(Cl)cc1)(Oc1ccc(Cl)cc1)N1CC1 |  | > 10 |  | > 10 |  | > 10 |  | > 10 |  | > 10 |  | > 10 |  | > 10 |  | > 10
13 | COc1ccc(/C=C/c2c(C(=O)/C=C/c3ccc(Cl)cc3)c(C)nc3ccccc23)cc1 |  |  | 1.29 | 4.11 | 2.41 | 6.97 | 2.43 | 9.13 | 1.73 | 3.56 | 2.12 | 4.83 | 1.57 | 3.06 | 1.61 | 6.05
14 | C=C(CN1CCN(c2ccccc2OC)CC1)c1ccc(C(=O)Nc2ccccc2N)cc1 | 3.58 | > 50 | 16.7 | > 50 | 0.0129 | 0.0874 | 9.28 | 32.4 | 3.32 | 11.6 | 3.27 | > 50 | 0.27 | 0.452 |  | 
15 | COc1cc(C)c(C(=O)O[C@H]2[C@H](O[C@H]3[C@@H](O)COC(O[C@H]4C[C@H]5[C@@H]6CC=C7C[C@@H](O)CC[C@]7(C)[C@H]6CC[C@]5(C)[C@H]4[C@H](C)C(=O)CCC(C)C)[C@@H]3OC(C)=O)OC[C@@H](O)[C@@H]2O)c(C)c1 (stereo not given in full) | < 0.01 | 0.161 | < 0.01 | 7.62 | 10 | 25.6 | 10.3 | > 100 | 0.153 | 18.4 | 0.0125 | 3.65 | 2.41 | 20.3 | 0.157 | 15.7
16 | O=C(/C=C/c1ccc(C(F)(F)F)cc1)c1ccc(Nc2nc(NCCO)nc(NCCO)n2)cc1 | 5.44 | 54 | 1.66 | 5.16 | 2.71 | 9.7 | 3.31 | 20.2 | 2.02 | 4.17 | 2.42 | 7.99 | 3.25 | 11.2 | 2.5 | 6.91
